What was measured:
[1] = tested on: IL-6 levels in Human A549 lung epithelial cells; assay: IL-1β-stimulated IL-6 in A549 cells; type: cell-based; settings: additional results (footnote a)
Experimental: IL-6 IC50 and % Inhibition
Human A549 lung epithelial cells (American Type Culture Collection, Rockville, Md.) were cultured in Kaighn's F-12K medium with penicillin-streptomycin (10 U/mL) and 10% heat-inactivated fetal bovine serum (all from Invitrogen, Grand Island, N.Y.). A549 cells were plated at a density of 30,000 cells/well in 96-well plates and incubated overnight at 37° C. and with 5% CO2. The cells were serum-starved by replacing the growth medium with serum-free Kaighn's F-12K medium with penicillin-streptomycin (10 U/mL) and, again, incubating overnight at 37° C. and with 5% CO2. On the third day, the medium was replaced with fresh serum-free medium and the cells were incubated with or without compound (vehicle was DMSO at 0.1% maximum concentration) for approximately 1 hour and then stimulated with 1 ng/mL recombinant human IL-1β (R&D Systems, Minneapolis, Minn.) for 20 hours at 37° C. and with 5% CO2. Cell supernatants were collected for determination of IL-6 levels using MSD (Meso Scale Discovery, Gaithersburg, Md.) 96-well Single Spot plates as per the manufacturer's instructions. Plates were read with an MSD Sector Imager 6000. […] Vehicle was used to define the 0% inhibition control. Percent inhibition for each compound concentration, relative to these controls, was calculated using Excel (Microsoft, Redmond, Wash.). […]

Serum osteocalcin = Serum osteocalcin suppression, 28-day repeat dose mouse model; type: in vivo, Swiss Webster female mice; settings: mice
Experimental: The compounds were weighed and suspended in a vehicle of 0.5% methylcellulose/0.025% tween 20 (Sigma-Aldrich, St. Louis, Mo.). Compound suspensions were homogenized using a Polytron PT-3100 tissue homogenizer to create a very fine suspension and were then sonicated for 10 minutes using a water bath sonicator. Aliquots of each suspension were made for daily dosing at 0.2 ml/dose. Swiss Webster female mice, 10-12 weeks old, 28-29 grams, (Taconic, Germantown, N.Y.) were used in accordance with the guidelines of the Institutional Animal Care and Use Committee and in accordance with NIH guidelines on laboratory animal welfare. Mice were acclimated in the Pfizer animal facility for three to seven days prior to being utilized in a study. […] Each treatment group contained 5-10 mice. To establish a dosing regimen for the studies, a pilot pharmacodynamic time course experiment was conducted to quantify TNFα repression after a single ED80 dose.
Body weights were measured on the first and last day of each experiment. Blood samples were obtained after three weeks of dosing for a steady-state pharmacokinetic (PK) analysis. To assess compound effects on LPS-induced TNFα, all mice received an intraperitoneal injection of LPS (Salmonella typhosa, L-7895; Sigma-Aldrich, St. Louis) 2.5 hr after the last dose on day 28. Mice were sacrificed 90 minutes after LPS administration. Serum samples were quantified for osteocalcin and TNFα using the multiplex assays (Linco Research, Inc, St. Charles, Mo.; Luminex 100, Austin, Tex.). Samples were diluted 1:20 and the assay was run according to manufacturer's instructions. The osteocalcin standard was purchased separately (Biomedical Technologies Inc., Stoughton, Mass.). Mice were fasted for 4 hours before serum was collected for TNFα, and osteocalcin levels. For each experiment, outliers were detected by calculating the number of standard deviations from the mean of the group. If the value being examined was more than 2.5 standard deviations from the mean, it was excluded from the rest of the calculations.
The individual mouse percent inhibition values were fit to a four-parameter logistic model using the dose mean for each group.
ED50 and ED80 values were obtained for the various endpoints using a four-parameter logistic fit. For compounds which were tested multiple times, ED50 and ED80 values were obtained using four-parameter logistic fits of the combined data from multiple experiments.

[2] = tested on: Cortical bone formation rate (BFR); assay: Cortical bone histomorphometry, bone formation rate (BFR); type: in vivo; settings: AUC 0-4 hr, mice
Experimental: During the in-life portion of each study, mice received two intraperitoneal (i.p.) injections (20 mg/kg, […]) of calcein (C-0875; Sigma-Aldrich, St. Louis, Mo.) on days 1 and 26 for bone histomorphometry measurements. Calcein incorporates into the bone mineral and allows measurement of bone formation rate. Calcein was dissolved in 2% sodium bicarbonate. During the tissue harvest, the left tibiae were excised and cleaned for cortical histomorphometry measurements. After all skin and muscle were removed, tibiae were placed in 70% ethanol 4° C.) in the dark for a minimum of 24 hours.
Ground transverse sections were used for histomorphometric analysis of cortical bone. Bones were sectioned using a low-speed saw (Isomet, Buehler, Lake Bluff, Ill.) equipped with a diamond wafer blade. The end of each tibia was removed proximal to tibia-fibula synostosis and a […] cross-section was cut. Using a roughened glass plate and a cork, sections were ground to […] until transparent and all labels were distinguishable under a fluorescent microscope. Sections were dehydrated using the following solutions for a minimum of two minutes each: 1) 70% ethanol, 2) 95% ethanol, 3) 100% ethanol, 4) 50/50 ethanol/xylene, and 5) xylene (twice) (#534056; Sigma-Aldrich, St. Louis, Mo.). Sections were mounted using Eukitt Quick Mounting Medium (#03989, Sigma-Aldrich, St. Louis, Mo.) after which coverslip was applied. Using the Osteomeasure Bone Analysis Program (Osteometrics, Inc., Decatur, Ga.), bone formation rate was calculated by tracing the 1st and […] fluorescent labels and the inner and outer perimeter of the bone. Bone formation rate was calculated by the following equation: (Inter-label width/Label interval)*(Labeled perimeter/Bone perimeter). At least five samples were measured from each treatment group in each study.

SMILES: C[C@]12C=CC(=O)C=C1CC[C@@H]1[C@@H]2[C@@H](O)C[C@@]2(C)[C@H]1CC[C@]2(O)C(=O)CO [Prednisolone]
- IL-6 % Inhibition [1]: 100%
- Serum osteocalcin EAUC50 (Serum osteocalcin; AUC 0-4 hr): 560 ng·h/mL
- Serum osteocalcin EAUC80 (Serum osteocalcin; AUC 0-4 hr): 1600 ng·h/mL
- Osteocalcin Suppression (ED80 dose) (Serum osteocalcin; oral gavage 28 days, serum osteocalcin): 6.80 mg/kg
- Cortical bone formation rate (BFR) EAUC50 [2]: 90 ng·h/mL
- Cortical bone formation rate (BFR) EAUC80 [2]: 600 ng·h/mL
